According to US10532977B2, “Small molecule inhibitors of protein tyrosine phosphatases and uses thereof” (Indiana University Research and Technology Corporation, priority 2015, dated 2020):
Entries after “also recorded” stand apart in the source; their conditions may differ.

What was measured:
SHP2/R362A = SHP2/R362A (Homo sapiens, UniProt Q06124, R362A); assay: SHP2/R362A mutant inhibition, pNPP substrate; assay type: biochemical; details: vs wild-type SHP2
Protocol: Protein expression and purification. […] These proteins were expressed in E. coli BL21(DE3) and purified with Ni-NTA resin (Qiagen). The SHP2 catalytic domain (residues 262-528) used for crystallization was expressed in E. coli BL21(DE3) and purified by Ni-NTA agarose (Qiagen) followed by sequential chromatography of HiPrep 26 desalting column (GE Healthcare), and cation exchange column packed with SP sepharose (GE Healthcare). Protein purity was determined to be greater than 95% by SDS-PAGE and Coomassie blue staining.
Enzyme kinetics and inhibition studies. The SHP2 phosphatase activity was assayed in 96-well plates using pNPP as a substrate at 25° C. in 50 mM 3,3-dimethylglutarate (DMG) buffer (pH=7.0), containing 1 mM EDTA with an ionic strength of 0.15 M adjusted by NaCl. The FDA-approved drug collection or the SPAA based libraries were screened in a 96-well format at two different compound concentrations (10 and 20 μM for FDA drugs and 10 and 1 μM for the SPAA libraries). […] The amount of product, p-nitrophenol, was determined from the absorbance at 405 nm detected by a Spectra MAX340 microplate spectrophotometer (Molecular Devices) using a molar extinction coefficient of 18,000 M^−1 cm^−1. […] The Michaelis-Menten kinetic parameters kcat and Km were determined from a direct fit of the velocity versus substrate concentration data to Michaelis-Menten equation using SigmaPlot program.

[1] = Stability in buffer solutions by LC-MS; assay type: physicochemical
Protocol: (§1) Agilent Technologies 6130 quadrupole LC-MS instrument was used for the LC-MS studies. A C18 reserved phase column (phenomenex, 50×4.6 mm) was used as stationary phase, water and methanol (both containing 0.1% formic acid) were used as mobile phase (gradient: 0-100% methanol, flow 0 8 ml/min, run time 15 minutes), and UV absorbance at the fixed wavelength of 254 nm and positive and negative ESI-MS data were recorded. The sample was adjusted to have a concentration at 0.1 mg/mL, and the injection volume of each sample was 0.2 μL. The retention time and corresponding ESI-MS data were used as identity of molecules.

SHP2 [2] = target: T1, SHP2 (Homo sapiens, UniProt Q06124); assay: SHP2 inhibition, pNPP substrate; assay type: biochemical; details: pNPP as substrate
T1 sequence (Q06124 224-528): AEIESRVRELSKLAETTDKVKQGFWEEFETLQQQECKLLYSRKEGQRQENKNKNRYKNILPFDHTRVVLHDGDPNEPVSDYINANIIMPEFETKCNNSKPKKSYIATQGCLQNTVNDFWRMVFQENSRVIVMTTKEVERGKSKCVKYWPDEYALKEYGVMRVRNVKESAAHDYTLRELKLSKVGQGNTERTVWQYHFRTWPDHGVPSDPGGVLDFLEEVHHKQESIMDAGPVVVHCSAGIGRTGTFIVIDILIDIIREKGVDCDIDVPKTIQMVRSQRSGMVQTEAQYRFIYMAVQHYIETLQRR

SHP2 [3] = target: SHP2 (Homo sapiens, UniProt Q06124); assay: Covalent adduct formation with SHP2, QTOF ESI-MS / LC-MS; details: pH 7, cefsulodin 3 hours, PVS 10 minutes
Protocol: Characterization of cefsulodin-mediated SHP2 inhibition by Q-TOF ESI-MS, LC-MS, and HPLC. Agilent 6520 Accurate-Mass was used for the Q-TOF ESI-MS studies. Water and acetonitrile (both containing 0.1% formic acid) were used as eluent (80% water, flow 50 μL/min, run time 5 minutes). ESI positive mode was used with mass range from 300 to 1700, the gas temperature was 325° C., and vaporizer temperature was: […] The sample was adjusted to have a concentration at 0.1 mg/mL, the injection volume of each sample was 1 μL. Mass hunter software was used for protein deconvolution data analysis to calculate the molecular weight of the protein.
as §1

SKBR3 cells = assay: SKBR3 cell growth and ERK1/2 in Matrigel; assay type: cell-based, human; details: 5 days
Protocol: SHP2 inhibitor 2 effects on cell growth in Matrigel. Approximately 300,000 SKBR3 cells were seeded into 150 µL of growth factor reduced Matrigel (BD) that was then covered with 2 mLs of media containing either 20 µL vehicle (DMSO) or the indicated concentrations of compound 2. Cells were then imaged at 24-hour intervals using a NIKON SMZ1500 stereomicroscope. After 5 days the cells were recovered from the Matrigel by the following method. Media was aspirated and cells were washed with 500 µL of cold PBS. 150 µL of RIPA lysis buffer supplemented with ProteCEASE-50. EDTA Free protease inhibitors (GBiosciences) was added to the Matrigel. Cells were scraped into a slurry and instantly frozen using dry ice for 5 minutes. After thawing tubes were spun down at 4° C. for 10 minutes at 14K rpm. Proteins were then resolved by SDS-PAGE and the relative levels of total and phospho-ERK1/2 were detected by immunoblot analysis.

[4] = tested on: EGF-mediated ERK1/2 phosphorylation; assay: EGF-mediated ERK1/2 phosphorylation, immunoblot, H1975 cells; assay type: cell-based, human; details: compound 7 at 40 μM
Protocol: (§2) Cell proliferation and immunoblot analysis. Human non-small cell lung carcinoma cell line H1975 was cultured at 37° C. and 5% CO2 in RPMI-1640 (Corning) supplemented with 10% fetal bovine serum (HyClone). Human breast cancer cell line MDA-MB-231 was cultured in DMEM supplemented with 10% fetal bovine serum. For cell proliferation assay, 2˜3×10^3 cells were seeded in each well of 96-well plates. After treating cells with compounds for 2 days, cells were incubated with 50 µg/ml MTT (3-(4,5-Dimethylthiazol-2-yl)-2,5-diphenyltetrazolium bromide) for ˜3-4 hours. Then, the culture medium was removed, DMSO was added to dissolve the formazan crystals. Wells containing only media were used for background correction. The optical density was measured spectrophotometrically at 540 nm. For signaling analysis, cells were serum-starved overnight followed by treatment with vehicle or compounds for 3 hours, and then either left un-stimulated or stimulated with 5 μg/ml EGF or 10 nM PMA (Sigma) for indicated time. Cells were lysed and the lysates were electrophoresed on a 10% polyacrylamide gel, and then transferred to a nitrocellulose membrane, and probed with anti-phospho-ERK1/2 and anti-ERK1/2 (Cell Signaling) antibodies followed by incubation with horseradish peroxidase-conjugated secondary antibodies. […]

[5] = tested on: PMA-induced ERK1/2 phosphorylation; assay: PMA-induced ERK1/2 phosphorylation, immunoblot; assay type: cell-based, human
Protocol: as §2

Sequence of SHP2/R362A (Q06124 224-528 R362A): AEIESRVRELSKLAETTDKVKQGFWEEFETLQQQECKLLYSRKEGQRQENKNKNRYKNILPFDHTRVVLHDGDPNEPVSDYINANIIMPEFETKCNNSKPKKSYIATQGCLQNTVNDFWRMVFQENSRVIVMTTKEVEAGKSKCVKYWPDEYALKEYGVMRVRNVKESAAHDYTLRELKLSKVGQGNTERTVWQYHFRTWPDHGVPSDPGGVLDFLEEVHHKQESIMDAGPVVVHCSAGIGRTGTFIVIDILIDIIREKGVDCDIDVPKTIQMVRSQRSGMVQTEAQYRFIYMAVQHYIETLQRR

Row | Structure (SMILES) | increase of IC50 by replacement of R362 with alanine (SHP2/R362A) | stability in crystallization solution (final pH=7.1) ([1]; 20° C., with SHP2 and DTT) | stability in CBTP buffer at pH 9.1 ([1]; 3 h, 6 h, 12 h) | stability in pH 5.8 MES buffer ([1]; 12 h, 1 d, 2 d) | stability in pH 7.4 CBTP buffer ([1]; 12 h, 1 d, 2 d) | stability under inhibition assay conditions ([1]; pH 7 and 25° C., 0 h, 3 h, 24 h and 48 h) | mode of SHP2 inhibition (SHP2 [2]) | mode of SHP2 inhibition (SHP2 [2]; listed as cefsulodin) | covalent adduct formation with SHP2 (SHP2 [3]) | ERK1/2 activity in SKBR3 cells in Matrigel at 20 μM (SKBR3 cells; 20 μM) | SKBR3 cell growth in Matrigel at 20 μM (SKBR3 cells; 20 μM) | ERK1/2 activity in SKBR3 cells in Matrigel at 40 μM (SKBR3 cells; 40 μM) | SKBR3 cell growth in Matrigel at 40 μM (SKBR3 cells; 40 μM) | EGF-mediated ERK1/2 phosphorylation in H1975 cells [4] | PMA-induced ERK1/2 phosphorylation [5]
1 | NC(=O)c1cc[n+](CC2=C(C(=O)O)N3C(=O)[C@@H](NC(=O)[C@@H](c4ccccc4)S(=O)(=O)[O-])[C@H]3SC2)cc1 [Cefsulodin] | 3 fold | completely degraded within 2 days; also recorded: the majority of cefsulodin was gone after 2 d | degradation was further accelerated; also recorded: cefsulodin was gone after 12 h | degradation of cefsulodin was negligible; also recorded: stable for at least 2 days | degradation was obvious; also recorded: cefsulodin concentrations decreased progressively | no change in cefsulodin | competitive inhibitor | competitive and reversible | no covalent adduct formation; also recorded: not inhibiting SHP2 by covalent modification | – | – | – | – | – | –
2 | O=C(Nc1ccc(I)cc1)C(=O)Nc1ccc(NC(=O)C(c2ccccc2)S(=O)(=O)O)cc1 (stereo not drawn) [Compound 2, 2-((4-(2-((4-iodophenyl)amino)-2-oxoacetamido)phenyl)amino)-2-oxo-1-phenylethanesulfonic acid] | – | – | – | – | – | – | – | – | – | partial inhibition | partial inhibition | barely detectable | almost completely absent | reduced EGF-mediated ERK1/2 phosphorylation in a dose-dependent manner; also recorded: decrease the EGF-mediated ERK1/2 phosphorylation in a dose dependent manner | no effect
